# From ChEMBL document CHEMBL3758176, “Synthesis of dihydrosterculic acid-based monoglucosyl diacylglycerol and its analogues and their biological evaluation” (Eur J Med Chem, 2016)
# Activity calls are given as the source filed them. The rule behind the calls is not given here.
# What was measured:
# [1] = system: A549; test: Cytotoxicity against human A549 cells assessed as reduction in cell viability by MTT assay; assay type: functional, cell-based
# [2] = Cytotoxicity against human DU145 cells assessed as reduction in cell viability by MTT assay; assay type: functional, cell-based, DU-145
# [3] = system: HUVEC; test: Cytotoxicity against HUVEC assessed as reduction in cell viability by MTT assay; assay type: cell-based, Homo sapiens
# [4] = system: MCF7; test: Cytotoxicity against human MCF7 cells assessed as reduction in cell viability by MTT assay; assay type: functional, cell-based
# [5] = Cytotoxicity against human SKOV3 cells assessed as reduction in cell viability by MTT assay; assay type: functional, cell-based, SK-OV-3
# [6] = system: MCF7; test: Induction of apoptosis in human MCF7 cells assessed as caspase-9 activation using AFC-conjugated Ac-LEHD as substrate at 5 to 10 uM incubated for 24 to 48 hrs by fluorescence assay relative to untreated control; assay type: functional
# [7] = system: MCF7; test: Antiproliferative activity against human MCF7 cells assessed as decrease in cell proliferation at 5 to 10 uM after 24 hrs by bromodeoxyuridine cell proliferation assay relative to untreated control; assay type: functional, cell-based
# [8] = system: MCF7; test: Induction of apoptosis in human MCF7 cells assessed as caspase-3 activation using AFC-conjugated Ac-DEVD as substrate at 5 to 10 uM incubated for 24 to 48 hrs by fluorescence assay relative to untreated control; assay type: functional
# [9] = Homo sapiens, A549, read-out: IC50
# [10] = Homo sapiens, DU-145, read-out: IC50
# [11] = Homo sapiens, HUVEC, read-out: IC50
# [12] = Homo sapiens, MCF7, read-out: IC50
# [13] = Homo sapiens, SK-OV-3, read-out: IC50
SMILES,IC50 ([1]; a549),IC50 ([2]; du-145),IC50 ([3]; huvec),IC50 ([4]; mcf7),IC50 ([5]; sk-ov-3),"IC50 [1, 9] [µM]","IC50 [2, 10] [µM]","IC50 [3, 11] [µM]","IC50 [4, 12] [µM]","IC50 [5, 13] [µM]",fold change (FC) [6],Activity [7],fold change (FC) [8]
CCCCCCCCCCCC(=O)OC[C@H](CO[C@@H]1O[C@H](COC(C)=O)[C@@H](OC(C)=O)[C@H](OC(C)=O)[C@H]1OC(C)=O)OC(=O)CCCCCCCCCCC,Not Active,Not Active,Not Active,Not Active,Not Active,,,,,,,,
CCCCCCCC/C=C\CCCCCCCC(=O)O[C@H](COC(=O)CCCCCCCC1CC1CCCCCCCC)CO[C@@H]1O[C@H](CO)[C@@H](O)[C@H](O)[C@H]1O (stereo partly specified),,,,,,41.6,38.9,99.8,38.2,35.6,,,
CCCCCCCC/C=C\CCCCCCCC(=O)OC[C@H](CO[C@@H]1O[C@H](CO)[C@@H](O)[C@H](O)[C@H]1O)OC(=O)CCCCCCC/C=C\CCCCCCCC,,,,,,18.2,20.1,110,17.6,19.1,2,Active,2
CCCCCCCCC1CC1CCCCCCCC(=O)OC[C@H](CO[C@@H]1O[C@H](CO)[C@@H](O)[C@H](O)[C@H]1O)OC(=O)CCCCCCCC1CC1CCCCCCCC (stereo partly specified),,,,,,124,210,120,99.8,112,,,
CCCCCCCC/C=C\CCCCCCCC(=O)O[C@H](COC(=O)CCCCCCCC1CC1CCCCCCCC)CO[C@@H]1O[C@H](COC(C)=O)[C@@H](OC(C)=O)[C@H](OC(C)=O)[C@H]1OC(C)=O (stereo partly specified),Not Active,,,,Not Active,,186,122,94.2,,,,
CCCCCCCCC1CC1CCCCCCCC(=O)OC[C@H](CO[C@@H]1O[C@H](COC(C)=O)[C@@H](OC(C)=O)[C@H](OC(C)=O)[C@H]1OC(C)=O)OC(=O)CCCCCCCC1CC1CCCCCCCC (stereo partly specified),Not Active,Not Active,Not Active,Not Active,Not Active,,,,,,,,
C=CCCCCCCCCC(=O)OC[C@H](CO[C@@H]1O[C@H](COC(C)=O)[C@@H](OC(C)=O)[C@H](OC(C)=O)[C@H]1OC(C)=O)OC(=O)CCCCCCCCC=C,,,,,,30.2,33,119,25.6,29.4,,,
COc1cccc2c1C(=O)c1c(O)c3c(c(O)c1C2=O)C[C@@](O)(C(=O)CO)C[C@@H]3O[C@H]1C[C@H](N)[C@H](O)[C@H](C)O1 [DOXORUBICIN],,,,,,,0.7,79.6,,0.7,,,
CCCCCCCCCCCC(=O)OC[C@H](CO[C@@H]1O[C@H](CO)[C@@H](O)[C@H](O)[C@H]1O)OC(=O)CCCCCCCCCCC,,,,,,35.6,54.9,96.1,32.6,44.4,,,
C=CCCCCCCCCC(=O)OC[C@H](CO[C@@H]1O[C@H](CO)[C@@H](O)[C@H](O)[C@H]1O)OC(=O)CCCCCCCCC=C,,,,,,106,119,126,32.5,89.6,,,
CCCCCCCC/C=C\CCCCCCCC(=O)OC[C@H](CO[C@@H]1O[C@H](COC(C)=O)[C@@H](OC(C)=O)[C@H](OC(C)=O)[C@H]1OC(C)=O)OC(=O)CCCCCCC/C=C\CCCCCCCC,Not Active,Not Active,Not Active,Not Active,Not Active,,,,,,,,
